Laboratory results published in paper PMC8688152, “Distinct classes of potassium channels fused to GPCRs as electrical signaling biosensors” (Cell Reports Methods, 2021).

What was measured:
M2[T4L]_T-00-43 = experiment: TEVC recording of G protein-uncoupled M2[T4L]_T-00-43; type: cell-based, human (M2), mouse (TREK-1); settings: 5 μM ACh
Description: (§1) Microelectrodes were filled with […]. […] The membrane voltage was clamped to −50 mV.

[1] = system: M2_Kcv-09-xx constructs with larger deletions up to 12 residues; type: cell-based, human (M2), Paramecium bursaria chlorella virus 1 (Kcv); settings: ACh 5 μM, TEVC
Description: Xenopus oocytes were prepared as previously reported ([Moreau et al., 2008]). Briefly, after surgical retrieval, the oocytes were defolliculated by type 1A collagenase. Each oocyte was injected with 50 nl of RNAse-free water containing the desired mRNAs. The mRNA quantities used per oocyte were: ICCR with Kcv, 2.7 ng (M2_Kcv and D2_Kcv) and 2.9 ng (OXTR_Kcv); ICCR with mTREK-1, 4.2 ng; ICCR with Kir6.2, 4.3 ng; M2, 2.3 ng; D2, 2.2 ng; Kir3.4T, 2.2 ng; Kcv 0.46 ng and mTREK-1, 2.1 ng. Microinjected oocytes were incubated 2 to 3 days at 19°C in modified-Barth's solution (in mM: 1 KCl, 0.82 MgSO4, 88 NaCl, 2.4 NaHCO3, 0.41 CaCl2, 16 HEPES, pH 7.4) supplemented with 100 U.ml^−1 of penicillin and streptomycin and 0.1 mg.mL^−1 of gentamycin. Animal handling and experiments fully conformed to European regulations and were approved by the French Ministry of Higher Education and Research (APAFIS#4420-2016030813053199 v4 to CM). […]
Two-electrode voltage-clamp (TEVC) recordings were performed automatically with HiClamp robots (MultiChannel Systems). […] Ligand effects were measured in high potassium concentration buffer with the membrane potential clamped to −50 mV and at 19°C.
Change of potassium current induced by ligand was calculated either with the barium-sensitive currents as a 0-reference for Kcv-based ICCRs or with the currents in ND96 for mTREK-1 ICCRs. […]

M2_T-09-43 = target: T1, M2_T-09-43 (UniProt P08172+P97438); experiment: TEVC recording of M2_T-09-43 in Xenopus oocytes; type: cell-based, human (M2), mouse (TREK-1); settings: ACh 5 μM
T1 construct: expressed in transfected cells; host or cells: Xenopus oocytes (mRNA injection); gene synthesized by ATG:biosynthetics
Description: as §1

M2_T-00-37 = target: T2, M2_T-00-37 (UniProt P08172+P97438); experiment: TEVC recording of M2_T-00-37 ICCR in Xenopus oocytes; type: cell-based, human (M2), mouse (TREK-1); settings: 91 mM K+, Vm = −50 mV, mean ± SEM
T2 construct: M2_T-00-37 with zero deletion in the M2 receptor C terminus (full-length receptor); expressed in transfected cells; host or cells: Xenopus oocytes (mRNA injection)
Description: as §1

M2_T-00-46 = target: T3, M2_T-00-46 (UniProt P08172+P97438); experiment: TEVC recording of M2_T-00-46 ICCR in Xenopus oocytes; type: cell-based, human (M2), mouse (TREK-1); settings: 91 mM K+, Vm = −50 mV, mean ± SEM
T3 construct: full-length (−00) or M2 deleted of its last nine residues (−09) in the indicated ICCRs; expressed in transfected cells; host or cells: Xenopus oocytes (mRNA injection); gene synthesized by GeneCust
Description: as §1

M2_Kir6.2-09-25 = system: M2_Kir6.2-09-25; parameters: method as in Moreau et al., 2017; settings: Kir6.2 ICCRs; ref Moreau et al., 2017; read-out: IC50 observed with Kir6.2 ICCRs; cited from earlier work
M2_Kcv-09-03 = target: T4, M2_Kcv-09-03 (UniProt P08172+Q84568); experiment: TEVC recording of M2_Kcv-09-03 ICCR expressed in Xenopus oocytes; type: cell-based, human (M2), Paramecium bursaria chlorella virus 1 (Kcv)
T4 construct: expressed in transfected cells; host or cells: Xenopus oocytes (mRNA injection)
T4 sequence (P08172+Q84568 with tags, fused parts or gaps): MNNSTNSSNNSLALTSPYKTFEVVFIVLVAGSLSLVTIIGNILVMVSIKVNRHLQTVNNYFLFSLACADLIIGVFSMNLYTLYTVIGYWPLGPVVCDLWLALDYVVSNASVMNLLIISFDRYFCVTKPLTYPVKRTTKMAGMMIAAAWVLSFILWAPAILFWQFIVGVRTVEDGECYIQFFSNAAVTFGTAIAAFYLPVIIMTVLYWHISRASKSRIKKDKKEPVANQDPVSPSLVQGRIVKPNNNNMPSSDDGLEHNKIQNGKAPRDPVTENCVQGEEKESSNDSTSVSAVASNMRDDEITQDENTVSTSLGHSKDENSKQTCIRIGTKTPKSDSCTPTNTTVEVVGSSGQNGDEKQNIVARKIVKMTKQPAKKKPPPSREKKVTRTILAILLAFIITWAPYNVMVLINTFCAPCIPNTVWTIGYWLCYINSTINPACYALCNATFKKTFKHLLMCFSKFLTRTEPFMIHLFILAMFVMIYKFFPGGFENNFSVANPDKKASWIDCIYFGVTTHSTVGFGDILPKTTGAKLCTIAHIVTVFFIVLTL
Description: as §1

unfused Kcv = unfused Kcv (Paramecium bursaria Chlorella virus 1, UniProt Q84568); experiment: TEVC controls: unfused Kcv co-expressed with M2, and Kcv alone; type: cell-based; settings: co-expression of unfused M2 and Kcv, and Kcv alone
Description: as §1

T3 sequence (P08172+P97438 fused): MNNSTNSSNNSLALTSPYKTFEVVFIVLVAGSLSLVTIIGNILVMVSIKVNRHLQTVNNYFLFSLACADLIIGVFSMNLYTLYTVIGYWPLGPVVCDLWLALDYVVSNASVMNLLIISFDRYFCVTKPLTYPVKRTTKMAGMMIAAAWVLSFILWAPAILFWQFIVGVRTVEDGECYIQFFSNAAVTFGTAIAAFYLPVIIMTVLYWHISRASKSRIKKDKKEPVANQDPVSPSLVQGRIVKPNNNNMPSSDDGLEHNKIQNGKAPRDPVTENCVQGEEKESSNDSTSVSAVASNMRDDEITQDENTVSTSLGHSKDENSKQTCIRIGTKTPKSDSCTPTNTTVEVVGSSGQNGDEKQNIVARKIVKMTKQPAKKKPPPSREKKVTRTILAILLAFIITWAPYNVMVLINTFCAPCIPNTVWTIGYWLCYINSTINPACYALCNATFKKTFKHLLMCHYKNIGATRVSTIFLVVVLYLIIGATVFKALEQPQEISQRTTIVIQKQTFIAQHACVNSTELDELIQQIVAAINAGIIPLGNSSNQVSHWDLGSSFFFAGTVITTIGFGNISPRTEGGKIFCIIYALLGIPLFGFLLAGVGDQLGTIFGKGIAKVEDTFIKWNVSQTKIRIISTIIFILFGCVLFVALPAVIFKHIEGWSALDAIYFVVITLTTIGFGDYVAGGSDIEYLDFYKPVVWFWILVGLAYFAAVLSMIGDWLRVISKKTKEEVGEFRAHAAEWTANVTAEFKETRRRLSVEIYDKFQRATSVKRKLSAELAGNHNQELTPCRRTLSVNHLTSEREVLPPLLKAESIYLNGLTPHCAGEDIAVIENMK
T1 sequence (P08172+P97438 fused): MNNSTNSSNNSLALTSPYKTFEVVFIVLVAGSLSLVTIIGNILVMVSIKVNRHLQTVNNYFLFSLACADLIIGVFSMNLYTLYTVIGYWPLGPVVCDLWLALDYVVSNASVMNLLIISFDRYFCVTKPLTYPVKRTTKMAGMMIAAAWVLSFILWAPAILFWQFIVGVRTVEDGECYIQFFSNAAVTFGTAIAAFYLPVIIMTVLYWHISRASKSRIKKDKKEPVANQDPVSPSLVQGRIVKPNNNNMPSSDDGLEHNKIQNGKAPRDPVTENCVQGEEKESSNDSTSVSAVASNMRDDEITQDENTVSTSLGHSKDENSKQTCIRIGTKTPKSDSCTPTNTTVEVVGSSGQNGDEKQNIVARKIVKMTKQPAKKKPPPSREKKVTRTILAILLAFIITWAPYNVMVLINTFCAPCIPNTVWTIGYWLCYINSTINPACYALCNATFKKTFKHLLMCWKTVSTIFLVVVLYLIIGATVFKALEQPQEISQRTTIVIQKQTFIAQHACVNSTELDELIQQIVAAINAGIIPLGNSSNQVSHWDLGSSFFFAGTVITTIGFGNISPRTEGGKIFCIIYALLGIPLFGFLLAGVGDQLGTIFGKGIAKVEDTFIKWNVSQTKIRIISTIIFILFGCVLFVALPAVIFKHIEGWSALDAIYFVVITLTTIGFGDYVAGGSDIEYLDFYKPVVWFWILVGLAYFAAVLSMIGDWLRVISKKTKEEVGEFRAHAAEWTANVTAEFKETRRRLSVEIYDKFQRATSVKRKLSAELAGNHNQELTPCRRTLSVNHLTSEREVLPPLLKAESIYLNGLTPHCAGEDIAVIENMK
T2 sequence (P08172+P97438 fused): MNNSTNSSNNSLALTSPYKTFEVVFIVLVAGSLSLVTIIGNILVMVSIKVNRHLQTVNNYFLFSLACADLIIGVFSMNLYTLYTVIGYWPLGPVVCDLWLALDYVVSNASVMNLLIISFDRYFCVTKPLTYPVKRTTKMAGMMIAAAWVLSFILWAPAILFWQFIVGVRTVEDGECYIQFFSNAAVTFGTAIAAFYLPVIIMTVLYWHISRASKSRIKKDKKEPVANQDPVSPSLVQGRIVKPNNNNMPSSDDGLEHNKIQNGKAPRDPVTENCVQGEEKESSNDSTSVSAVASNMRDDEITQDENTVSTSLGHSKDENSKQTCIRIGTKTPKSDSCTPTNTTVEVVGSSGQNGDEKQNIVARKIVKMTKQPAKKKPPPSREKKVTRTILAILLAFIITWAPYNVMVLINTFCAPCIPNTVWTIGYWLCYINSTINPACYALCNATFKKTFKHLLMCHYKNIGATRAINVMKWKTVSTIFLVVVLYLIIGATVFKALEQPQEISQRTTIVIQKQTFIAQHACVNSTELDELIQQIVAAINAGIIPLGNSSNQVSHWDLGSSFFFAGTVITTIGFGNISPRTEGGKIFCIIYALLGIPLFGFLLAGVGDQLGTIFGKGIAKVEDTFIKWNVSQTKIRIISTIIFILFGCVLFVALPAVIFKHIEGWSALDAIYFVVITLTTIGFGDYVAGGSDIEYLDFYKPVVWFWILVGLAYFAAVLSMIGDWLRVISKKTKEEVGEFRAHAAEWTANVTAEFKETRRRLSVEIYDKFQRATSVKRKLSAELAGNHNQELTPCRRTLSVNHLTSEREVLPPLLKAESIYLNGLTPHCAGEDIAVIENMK

CC(=O)OCC[N+](C)(C)C [ACh, acetylcholine]
activation of G protein-uncoupled M2[T4L]_T-00-43 by ACh (M2[T4L]_T-00-43): still activated by ACh with the same amplitude as WT | response of M2_Kcv-09 constructs with larger deletions up to 12 residues to ACh [1]: did not yield significant responses | regulation of M2_T-09-43 by ACh (M2_T-09-43): no significant regulation | activation: % of current change induced by ACh 5 μM on M2_T-00-37 (M2_T-00-37): 3.9% ± 0.9% | activation: % of current change induced by ACh 5 μM on M2_T-00-46 (M2_T-00-46): 35.2% ± 1.6% | IC50 (M2_Kir6.2-09-25): 1.25 µM | Hill coefficient (nH) on M2_Kcv-09-03 (M2_Kcv-09-03; concentration-effect curve, TEVC): 0.37 | inhibition at 5 µM (M2_Kcv-09-03; read-out: inhibition: % of current change induced by ACh 5 μM on M2_Kcv-09-03, 5 μM, Xenopus oocytes, 91 mM K+, Vm = −50 mV, printed as inhibition, mean ± SEM): 53.4% | regulation of unfused Kcv by ACh (unfused Kcv): absence of regulation
